Experimental data from PMC11324517 (Nature, 2024).
Substitutions are numbered along the chain they refer to. Values joined by “and” are separate entries in the source; they are usually repeats but may differ in a detail not shown here. Identical values can stand only once. “Also recorded” adds a separate entry of the source. Like-named read-outs stand apart in the source and are kept apart here.

Key:
∆-hDAT D385A = ∆-hDAT D385A (Homo sapiens, UniProt Q01959, D385A/I248Y); conditions: MRS7292 30 µM; [3H]dopamine uptake, Figure 2d raw data
Description: (§1) Replicates containing 10 µM of GBR12909 were used to measure background. […] Uptake was quenched by adding 50 µl of ice-cold inhibition buffer.
(§2) Specific counts were obtained by subtracting background counts (averaged from technical triplicates) from total counts. […] Data were collected from three independent experiments (n = 3 biological replicates starting from transduction), each performed with three technical replicates.

full-length hDAT = full-length hDAT (Homo sapiens, UniProt Q01959); conditions: background not subtracted
Description: (§3) HEK293 GnTI^− cells were transduced with Δ-hDAT and full-length hDAT P2 viruses, propagated in SF9 cells using standard methods as described in ‘Protein expression and purification’, at a cell density of 2.5 – 3.0 × 10^6 cells per ml, followed by incubation at 37 °C for 6 h. After 6 h, sodium butyrate was added to a final concentration of 10 mM, and the cells were transferred to 30 °C with 8% CO2 for 6 h. The transduced cells were seeded into 96-well poly-D-lysine coated Isoplates (Perkin Elmer) at a density of 100,000 cells per well. The plates were then incubated at 30 °C for 12–16 h before the uptake assay was initiated. The cells were initially washed with 37 °C uptake assay buffer composed of 25 mM HEPES pH 7.4, 120 mM NaCl, 5 mM KCl, 1.2 mM CaCl2, 1.2 mM MgSO4, 5 mM D-glucose, 1 mM ascorbic acid, and 1 µM Ro 41-0960, followed by incubation in 50 µl of the same buffer for 10 min. Replicates with 10 µM of GBR12909 in the uptake assay buffer were used to measure background. […] The uptake reaction was stopped by adding 100 µl of chilled inhibition buffer, uptake assay buffer supplemented with 2.5 µM GBR12909. Two consecutive washes with 100 µl of inhibition buffer were carried out, followed by resuspension of cells in 100 µl of 1% Triton X-100. Finally, 100 µl of liquid scintillation cocktail was added to each well and [^3H] counts were measured using a MicroBeta2 (Perkin Elmer). Background counts from three replicates were averaged and subtracted from total counts.

∆-hDAT D385N = ∆-hDAT D385N (Homo sapiens, UniProt Q01959, D385N/I248Y); conditions: D385N versus ∆-hDAT
Description: as §1, §2

∆-hDAT W84C = molecular target: T1, ∆-hDAT W84C (Homo sapiens, UniProt Q01959, I248Y/W84C); conditions: for W84C total (raw [3H]dopamine uptake counts): Extended Data Fig 7c source data, replicates 1-3
T1 sequence (Q01959 57-620 W84C/I248Y limits assumed): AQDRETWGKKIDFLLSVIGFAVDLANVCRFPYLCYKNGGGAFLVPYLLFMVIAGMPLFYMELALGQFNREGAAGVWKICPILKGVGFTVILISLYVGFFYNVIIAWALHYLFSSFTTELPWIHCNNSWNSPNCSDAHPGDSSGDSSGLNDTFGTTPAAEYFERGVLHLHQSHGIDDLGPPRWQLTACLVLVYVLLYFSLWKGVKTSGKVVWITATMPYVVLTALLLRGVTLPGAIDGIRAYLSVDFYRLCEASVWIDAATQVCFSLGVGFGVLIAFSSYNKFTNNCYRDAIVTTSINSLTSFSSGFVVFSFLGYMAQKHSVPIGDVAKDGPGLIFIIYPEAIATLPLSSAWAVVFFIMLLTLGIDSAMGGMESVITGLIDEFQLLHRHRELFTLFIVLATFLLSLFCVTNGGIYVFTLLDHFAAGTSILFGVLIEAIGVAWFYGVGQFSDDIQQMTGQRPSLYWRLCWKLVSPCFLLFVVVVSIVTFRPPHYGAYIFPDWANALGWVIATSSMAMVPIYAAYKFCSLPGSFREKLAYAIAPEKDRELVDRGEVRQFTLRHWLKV
Description: as §1, §2

∆-hDAT = ∆-hDAT (Homo sapiens, UniProt Q01959, I248Y); conditions: 10 µM MRS7292, [3H]DA 0.185 uM, background not subtracted
Description: as §3

∆-hDAT V364I = ∆-hDAT V364I (Homo sapiens, UniProt Q01959, I248Y/V364I); conditions: [3H]dopamine uptake, Figure 2d raw data
Description: as §1, §2

∆-hDAT V364I/I390L = ∆-hDAT V364I/I390L (Homo sapiens, UniProt Q01959, I248Y/I390L/V364I); conditions: MRS7292 10 µM; [3H]dopamine uptake, Figure 2d raw data
Description: as §1, §2

∆-hDAT Y394F = ∆-hDAT Y394F (Homo sapiens, UniProt Q01959, I248Y/Y394F); conditions: for Y394F total (raw [3H]dopamine uptake counts): Extended Data Fig 7c source data, replicates 1-3
Description: as §1, §2

∆-hDAT I390L = ∆-hDAT I390L (Homo sapiens, UniProt Q01959, I248Y/I390L); conditions: [3H]dopamine uptake
Description: as §1, §2

∆-hDAT W84A = molecular target: T2, ∆-hDAT W84A (Homo sapiens, UniProt Q01959, I248Y/W84A); conditions: for W84A total (raw [3H]dopamine uptake counts): Extended Data Fig 7c source data, replicates 1-3
T2 sequence (Q01959 57-620 W84A/I248Y limits assumed): T1 sequence (Q01959 57-620 W84C/I248Y limits assumed) with C28A
Description: as §1, §2

Sequence of ∆-hDAT I390L (Q01959 57-620 I248Y/I390L limits assumed): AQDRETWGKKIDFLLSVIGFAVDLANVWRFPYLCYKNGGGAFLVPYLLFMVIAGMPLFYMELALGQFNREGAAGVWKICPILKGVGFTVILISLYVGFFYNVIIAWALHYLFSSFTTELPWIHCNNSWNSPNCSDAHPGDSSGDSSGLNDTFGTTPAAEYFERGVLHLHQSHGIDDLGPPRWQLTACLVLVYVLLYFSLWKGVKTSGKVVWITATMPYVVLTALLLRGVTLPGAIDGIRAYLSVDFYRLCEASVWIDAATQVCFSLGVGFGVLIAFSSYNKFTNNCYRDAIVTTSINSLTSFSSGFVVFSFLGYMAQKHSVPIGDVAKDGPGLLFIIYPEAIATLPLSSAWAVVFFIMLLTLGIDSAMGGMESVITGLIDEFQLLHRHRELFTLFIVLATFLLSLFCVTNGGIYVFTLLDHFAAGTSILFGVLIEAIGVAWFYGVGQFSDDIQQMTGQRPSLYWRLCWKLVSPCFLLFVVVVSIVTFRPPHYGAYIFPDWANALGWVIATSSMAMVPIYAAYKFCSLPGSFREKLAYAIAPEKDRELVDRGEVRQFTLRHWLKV
Sequence of ∆-hDAT V364I/I390L (Q01959 57-620 I248Y/V364I/I390L limits assumed): as the sequence (Q01959 57-620 I248Y/I390L limits assumed) above, with V308I counted along it
Sequence of ∆-hDAT Y394F (Q01959 57-620 I248Y/Y394F limits assumed): as the sequence (Q01959 57-620 I248Y/I390L limits assumed) above, with L334I, Y338F counted along it
Sequence of ∆-hDAT (Q01959 57-620 I248Y limits assumed): as the sequence (Q01959 57-620 I248Y/I390L limits assumed) above, with L334I counted along it
Sequence of ∆-hDAT D385A (Q01959 57-620 I248Y/D385A limits assumed): as the sequence (Q01959 57-620 I248Y/I390L limits assumed) above, with D329A, L334I counted along it
Sequence of ∆-hDAT V364I (Q01959 57-620 I248Y/V364I limits assumed): as the sequence (Q01959 57-620 I248Y/I390L limits assumed) above, with V308I, L334I counted along it
Sequence of ∆-hDAT D385N (Q01959 57-620 I248Y/D385N limits assumed): as the sequence (Q01959 57-620 I248Y/I390L limits assumed) above, with D329N, L334I counted along it
Sequence of full-length hDAT (Q01959 whole entry): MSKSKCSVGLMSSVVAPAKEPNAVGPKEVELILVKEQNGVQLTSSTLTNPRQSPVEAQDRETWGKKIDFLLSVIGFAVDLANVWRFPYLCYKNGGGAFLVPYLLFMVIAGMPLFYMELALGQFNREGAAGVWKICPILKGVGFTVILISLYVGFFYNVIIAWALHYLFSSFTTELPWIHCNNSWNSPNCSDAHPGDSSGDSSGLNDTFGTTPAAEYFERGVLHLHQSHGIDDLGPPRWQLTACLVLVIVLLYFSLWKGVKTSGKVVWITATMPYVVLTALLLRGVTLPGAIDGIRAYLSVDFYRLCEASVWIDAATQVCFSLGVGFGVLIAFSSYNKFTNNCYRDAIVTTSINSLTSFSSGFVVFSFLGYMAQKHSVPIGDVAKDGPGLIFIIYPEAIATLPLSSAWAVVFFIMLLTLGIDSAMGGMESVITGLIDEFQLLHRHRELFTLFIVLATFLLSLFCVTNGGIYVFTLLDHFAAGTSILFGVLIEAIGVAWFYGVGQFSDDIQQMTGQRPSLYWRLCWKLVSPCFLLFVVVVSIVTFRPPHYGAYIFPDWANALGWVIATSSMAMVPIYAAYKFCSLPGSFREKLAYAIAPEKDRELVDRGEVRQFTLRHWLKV

## CNc1nc(C#Cc2ccc(Cl)s2)nc2c1ncn2[C@H]1[C@H](O)[C@H](O)[C@]2(C(=O)OC)C[C@H]12 [MRS7292]
∆-hDAT D385A
  D385A total: 286 and 316 and 337 and 362 and 408 and 403 and 257 and 320
full-length hDAT; 10 µM MRS7292, [3H]DA 0.0068 uM
  [3H]DA Uptake - Full length hDAT, total counts - 10 µM MRS7292: 10 cpm and 11 cpm and 8 cpm and 14 cpm and 9 cpm and 16 cpm
full-length hDAT; 10 µM MRS7292, [3H]DA 0.061 uM
  [3H]DA Uptake - Full length hDAT, total counts - 10 µM MRS7292: 13 cpm and 18 cpm and 14 cpm and 10 cpm and 16 cpm and 15 cpm and 19 cpm and 17 cpm
full-length hDAT; 10 µM MRS7292, [3H]DA 0.185 uM
  [3H]DA Uptake - Full length hDAT, total counts - 10 µM MRS7292: 25 cpm and 15 cpm and 20 cpm and 27 cpm and 21 cpm and 23 cpm and 22 cpm
full-length hDAT; 10 µM MRS7292, [3H]DA 1.66 uM
  [3H]DA Uptake - Full length hDAT, total counts - 10 µM MRS7292: 65 cpm and 83 cpm and 90 cpm and 75 cpm and 88 cpm and 55 cpm and 51 cpm and 66 cpm
∆-hDAT D385N
  effect of mutation on potency of MRS7292 (inhibition of dopamine uptake): retained potency; also recorded: potency of MRS7292 was maintained; also recorded: little effect
∆-hDAT W84C; MRS7292 1e-6 µM
  W84C total (raw [3H]dopamine uptake counts): 4594 and 4467 and 4710 and 3850 and 4193 and 4029 and 4760 and 5939 and 5408
∆-hDAT W84C; MRS7292 0.041 µM
  W84C total (raw [3H]dopamine uptake counts): 5542 and 4901 and 4879 and 3714 and 3791 and 3749 and 5161 and 5312 and 5150
∆-hDAT W84C; MRS7292 0.123 µM
  W84C total (raw [3H]dopamine uptake counts): 5015 and 4917 and 5068 and 3749 and 3676 and 3489 and 6082 and 6141 and 5806
∆-hDAT W84C; MRS7292 0.37 µM
  W84C total (raw [3H]dopamine uptake counts): 4864 and 5475 and 5004 and 3395 and 4058 and 4217 and 6996 and 6040 and 6103
∆-hDAT W84C; MRS7292 1.11 µM
  W84C total (raw [3H]dopamine uptake counts): 4560 and 4192 and 4804 and 2868 and 3597 and 3884 and 6157 and 6005
∆-hDAT W84C; MRS7292 3.33 µM
  W84C total (raw [3H]dopamine uptake counts): 5290 and 5001 and 5041 and 3941 and 4001 and 3991 and 5807 and 6342 and 6018
∆-hDAT W84C; MRS7292 10 µM
  W84C total (raw [3H]dopamine uptake counts): 5439 and 5725 and 4868 and 3830 and 4200 and 4303 and 5849 and 6416 and 6207
∆-hDAT W84C; MRS7292 30 µM
  W84C total (raw [3H]dopamine uptake counts): 4716 and 4588 and 4467 and 3448 and 3565 and 3579 and 4954 and 3057 and 4610
∆-hDAT W84C; W84C versus ∆-hDAT
  effect of mutation on potency of MRS7292 (inhibition of dopamine uptake): severely compromises the potency; also recorded: severe loss of MRS7292 activity
∆-hDAT
  [3H]DA Uptake - Δ-hDAT, total counts - 10 µM MRS7292: 20 cpm and 17 cpm and 15 cpm and 19 cpm and 12 cpm and 22 cpm
∆-hDAT V364I; MRS7292 1e-6 µM
  V364I total: 5751 and 5593 and 5760 and 5223 and 5698 and 5483 and 5457 and 5433
∆-hDAT V364I; MRS7292 10 µM
  V364I total: 65 and 56 and 61 and 57 and 59 and 73 and 84 and 89
∆-hDAT V364I; MRS7292 30 µM
  V364I total: 24 and 25 and 29 and 37 and 23 and 36 and 26
∆-hDAT V364I/I390L
  I390L-V364I total: 85 and 69 and 75 and 62 and 48 and 60 and 76 and 66
∆-hDAT Y394F; MRS7292 1e-6 µM
  Y394F total (raw [3H]dopamine uptake counts): 1962 and 2141 and 2109 and 2218 and 1876 and 2149 and 2315 and 2380 and 2515
∆-hDAT Y394F; MRS7292 0.041 µM
  Y394F total (raw [3H]dopamine uptake counts): 2021 and 1947 and 2451 and 1672 and 1475 and 1990 and 5167 and 4746
∆-hDAT Y394F; MRS7292 0.123 µM
  Y394F total (raw [3H]dopamine uptake counts): 2135 and 2187 and 2249 and 1538 and 1496 and 1463 and 3048 and 2825 and 2648
∆-hDAT Y394F; MRS7292 0.37 µM
  Y394F total (raw [3H]dopamine uptake counts): 2258 and 2255 and 2215 and 1771 and 1434 and 1467 and 2327 and 2753 and 2672
∆-hDAT Y394F; MRS7292 1.11 µM
  Y394F total (raw [3H]dopamine uptake counts): 1683 and 2000 and 1961 and 1802 and 1518 and 1933 and 2789 and 2557 and 2651
∆-hDAT Y394F; MRS7292 3.33 µM
  Y394F total (raw [3H]dopamine uptake counts): 2058 and 2080 and 2545 and 1969 and 2086 and 2231 and 2762 and 2184 and 1914
∆-hDAT Y394F; MRS7292 10 µM
  Y394F total (raw [3H]dopamine uptake counts): 2191 and 2728 and 2379 and 1871 and 1698 and 1883 and 2721 and 2825 and 2576
∆-hDAT Y394F; MRS7292 30 µM
  Y394F total (raw [3H]dopamine uptake counts): 1926 and 2280 and 2146 and 1689 and 1287 and 1345 and 2421 and 2231 and 2505
∆-hDAT Y394F; Y394F versus ∆-hDAT
  effect of mutation on potency of MRS7292 (inhibition of dopamine uptake): diminishes the potency; also recorded: severe loss of MRS7292 activity
∆-hDAT I390L; I390L mutant
  change in IC50 of MRS7292 versus ∆-hDAT: modest increase in the IC50 value; also recorded: increased IC50
∆-hDAT I390L; MRS7292 30 µM, Figure 2d raw data
  I390L total counts: 109 counts and 108 counts and 83 counts and 89 counts and 68 counts and 75 counts and 87 counts and 88 counts
∆-hDAT W84A; MRS7292 1e-6 µM
  W84A total (raw [3H]dopamine uptake counts): 4895 and 4792 and 4802 and 4600 and 4953 and 4373 and 5070 and 4982 and 5054
∆-hDAT W84A; MRS7292 0.041 µM
  W84A total (raw [3H]dopamine uptake counts): 4749 and 4230 and 4559 and 4747 and 4675 and 5103 and 5266 and 5201 and 5101
∆-hDAT W84A; MRS7292 0.123 µM
  W84A total (raw [3H]dopamine uptake counts): 4930 and 5121 and 4987 and 4751 and 4624 and 4813 and 5010 and 4838 and 4937
∆-hDAT W84A; MRS7292 0.37 µM
  W84A total (raw [3H]dopamine uptake counts): 4894 and 4668 and 4952 and 4517 and 4587 and 4491 and 5700 and 5202 and 4820
∆-hDAT W84A; MRS7292 1.11 µM
  W84A total (raw [3H]dopamine uptake counts): 4984 and 5198 and 4980 and 4949 and 4430 and 4563 and 5130 and 4679 and 4795
∆-hDAT W84A; MRS7292 3.33 µM
  W84A total (raw [3H]dopamine uptake counts): 4301 and 4523 and 4569 and 4697 and 4581 and 4993 and 4757 and 5251 and 4774
∆-hDAT W84A; MRS7292 10 µM
  W84A total (raw [3H]dopamine uptake counts): 4768 and 4277 and 4629 and 4852 and 4916 and 4947 and 5164 and 4713 and 5124
∆-hDAT W84A; MRS7292 30 µM
  W84A total (raw [3H]dopamine uptake counts): 3395 and 3824 and 4400 and 4392 and 4159 and 3949 and 4924 and 4868 and 4552
∆-hDAT W84A; W84A versus ∆-hDAT
  effect of mutation on potency of MRS7292 (inhibition of dopamine uptake): severely compromises the potency; also recorded: severe loss of MRS7292 activity
